Experiments:
[1] = tested on: MCF7 Tet-On GFP-IBD human breast cancer cell line; test: GFP-53BP1 IRIF persistence, senescence and growth in MCF7 Tet-On GFP-IBD cells; assay type: cell-based; conditions: for persistence of GFP-53BP1 foci (IRIF) / accelerated senescence: combined with irradiation; for Senescence inducing condition 2 (compound concentration combined with IR) / Senescence inducing condition 1 (compound concentration combined with IR): MCF7 cell line
Description: To examine the effect of glucose metabolism on IRIF persistence in living cells, we exploited our previously described IRIF reporter consisting of GFP fused to the 53BP1 IRIF binding domain, expressed under tetracycline-inducible control. MCF7^Tet-On GFP-IBD cells were seeded at 3×10^5 per Fluorodish (World Precision Instruments, Inc.) in high-glucose (4.5 g/L) DMEM (Invitrogen) media supplemented with 10% Tet system-approved fetal bovine serum (Clontech) and 1 μg/mL doxycycline (Sigma). Next day media was exchanged for either high-glucose (4.5 g/L) or low-glucose (1 g/L) DMEM with 10% FBS and 1 μg/mL doxycycline. […] Cells were fixed at 3 h and 24 h for IRIF imaging and at day 5 for SA-βGal staining. Images were captured on Zeiss Axiovert 200M and a Hammatsu Orca ER FireWire digital monochrome (IRIF) or Zeiss Axiocam color digital camera (SA-βGal staining) controlled by OpenLab software.
To investigate what step of glycolysis is critical for improvement of DNA repair we used set of well established glycolysis inhibitors including glucose transporter Glut1 inhibitor, HXKi, GAPHi, PKi, LDHi. […] Given that elevated glycolysis predispose tumor cells for therapeutic resistance similar experiment has been performed on IR resistant PANC02 mouse pancreatic and U87 human glioma cell lines.

[2] = tested on: Nu61 head and neck squamous carcinoma xenografts; test: SA-βGal in Nu61 tumor xenografts; assay type: in vivo, mouse
Description: Head and neck squamous carcinomas cell line Nu61^Tet-On GFP-IBD with IRIF live imaging reporter have been developed. Female athymic nude mice underwent s.c. injection of 1×10^7 Nu61 Tet-OnGFP-IBD cells in 100 μL of PBS. Nine days later, mice received 25 mg/kg veliparib (ChemieTek) by oral gavage 48 hours before and 72 hours after a single dose of 6 Gy. […] Tumors were excised and frozen in liquid nitrogen for subsequent analysis. Frozen sections were analyzed for SA-βGal activity. The senescence-associated β-galactosidase (SA-βGal) assay was conducted as described before. Images were captured on a Zeiss Axiovert 200M and Zeiss Axiocam color digital camera controlled by OpenLab software with a ×20 objective.

[3] = tested on: PANC02 mouse pancreatic cell line; test: GFP-53BP1 IRIF persistence in PANC02 Tet-On GFP-IBD cells; assay type: cell-based; conditions: 24 hours after 6 Gy
Description: (§1) PANC02^Tet-On GFP-IBD and U87^Tet-On GFP-IBD cell lines have been developed. Cells were seeded at 3×10^5 per Fluorodish in media supplemented with 1 μg/mL doxycycline following pretreatment for 1 h with glycolysis inhibitors before 6 Gy irradiation at 48 h. Phloretin Glut1i—Glucose transporter 1 inhibitor 100 μM (Sigma), HXi—Hexokinase inhibitorII 50 μM (Calbiochem), PKi—Pyruvate kinase inhibitor oxalate 50 μM (Sigma), LDHi—Lactate dehydrogenase inhibitor, oxamate 1 mM (Sigma).

[4] = tested on: U87 human glioma cell line; test: GFP-53BP1 IRIF persistence in U87 Tet-On GFP-IBD cells; assay type: cell-based; conditions: 24 hours after 6 Gy
Description: as §1

[5] = chemotherapy agent, no irradiation stated

O=CC[C@@H](O)[C@H](O)[C@H](O)CO [2DG, 2-deoxy-D-glucose]
persistence of GFP-53BP1 foci (IRIF) [1]: induced persistence of GFP-53BP1 foci | SA-βGal induction in tumor ([2]; irradiated tumor treated with 2DG and veliparib): Strongest induction of SA-βGal | SA-βGal positive cells in tumor ([2]; irradiation combined with 2DG): induced numerous cells stained positive for SA-βGal

Nc1nc2ccc(Cl)cc2c2nc(-c3ccco3)nn12 [CGS15943]
Senescence inducing condition 2 (compound concentration combined with IR) ([1]; compound + 5 Gy): 0.05 μM + 5 Gy^

N[C@@H](C(=O)N[C@@H]1C(=O)N2C(C(=O)O)=C(Cl)CS[C@H]12)c1ccccc1 [Cefaclor]
Senescence inducing condition 1 (compound concentration combined with IR) ([1]; compound + 6 Gy): 25 μM + 6 Gy

CC1=C(C(=O)O)N2C(=O)[C@@H](NC(=O)[C@H](N)c3ccccc3)[C@H]2SC1 [Cephalexin]
Senescence inducing condition 2 (compound concentration combined with IR) ([1]; compound + 6 Gy): 10 μM + 6 Gy

N.N.[Cl][Pt][Cl] [Cisplatin]
persistence of GFP-53BP1 foci [1, 5]: induced persistence of GFP-53BP1 foci | senescence and growth [1, 5]: accelerated senescence and growth suppression

CN(C)CCC=C1c2ccccc2COc2ccccc21 [Doxepin]
Senescence inducing condition 2 (compound concentration combined with IR) ([1]; compound + 5 Gy): 2.5 μM + 5 Gy

O=c1[nH]cc(F)c(=O)[nH]1 [Fluorouracil (5-FU), Fluorouracil]
accelerated senescence [1]: accelerates senescence | persistence of GFP-53BP1 foci (IRIF) [1]: enhances IRIF persistence

CN1CCC(=C2c3ccccc3CC(=O)c3sccc32)CC1 [Ketotifen]
Senescence inducing condition 2 (compound concentration combined with IR) ([1]; compound + 5 Gy): 5 μM + 5 Gy

COC(=O)C1=C(C)NC(C)=C(C(=O)OCC(C)C)C1c1ccccc1[N+](=O)[O-] (stereo not shown) [Nisoldipine]
Senescence inducing condition 2 (compound concentration combined with IR) ([1]; compound + 6 Gy): 10 μM + 6 Gy

O=C(O)C[C@H](O)C[C@H](O)/C=C/c1c(C2CC2)nc2ccccc2c1-c1ccc(F)cc1 [Pitavastatin]
Senescence inducing condition 1 (compound concentration combined with IR) ([1]; compound + 6 Gy): 10 μM + 6 Gy

O=c1c(O)c(-c2ccc(O)c(O)c2)oc2cc(O)cc(O)c12 [Quercetin]
Senescence inducing condition 2 (compound concentration combined with IR) ([1]; compound + 5 Gy): 2.5 μM + 5 Gy

COc1ccc(C2CNC(=O)C2)cc1OC1CCCC1 (stereo not shown) [Rolipram]
Senescence inducing condition 1 (compound concentration combined with IR) ([1]; compound + 6 Gy): 10 μM + 6 Gy

O=C(CCCCCCC(=O)Nc1ccccc1)NO [SAHA, suberoylanilide hydroxamic acid]
persistence of GFP-53BP1 foci (IRIF) [1]: enhance radiation induced persistence of GFP-53BP1 foci

CC/C(=C(\c1ccccc1)c1ccc(OCCN(C)C)cc1)c1ccccc1 [Tamoxifen]
accelerated senescence [1]: promoted accelerated senescence | persistence of GFP-53BP1 foci (IRIF) [1]: induced persistence of GFP-53BP1 foci after irradiation

CN(C/C=C/C#CC(C)(C)C)Cc1cccc2ccccc12 [Terbinafine]
Senescence inducing condition 1 (compound concentration combined with IR) ([1]; compound + 5 Gy): 2.5 μM + 5 Gy

O=c1n(CCCN2CCN(c3cccc(Cl)c3)CC2)nc2ccccn12 [Trazodone]
Senescence inducing condition 2 (compound concentration combined with IR) ([1]; compound + 6 Gy): 10 μM + 6 Gy

CCCCCCCCCCCCCCCc1cccc(O)c1C(=O)O [anacardic acid]
persistence of GFP-53BP1 foci (IRIF) [1]: enhance radiation induced persistence of GFP-53BP1 foci

c1cc(-c2cnn3cc(-c4ccc(OCCN5CCCCC5)cc4)cnc23)ccn1 [compound C]
accelerated senescence [1]: promoted accelerated senescence | persistence of GFP-53BP1 foci (IRIF) [1]: induced persistence of GFP-53BP1 foci after irradiation

O=C(O)C(Cl)Cl [dichloroacetic acid (DCA), dichloroacetic acid]
accelerated senescence [1]: promoted accelerated senescence | persistence of GFP-53BP1 foci (IRIF) [1]: induced persistence of GFP-53BP1 foci following irradiation

CN(C)C(=N)N=C(N)N [metformin]
accelerated senescence [1]: promoted accelerated senescence | persistence of GFP-53BP1 foci (IRIF) [1]: induced persistence of GFP-53BP1 foci after irradiation

O=C(CCc1ccc(O)cc1)c1c(O)cc(O)cc1O [phloretin]
accelerated senescence [1]: promoted accelerated senescence | persistence of GFP-53BP1 foci (IRIF) [1]: induced persistence of GFP-53BP1 foci following irradiation | IRIF persistence [3]: markedly increased IRIF persistence | IRIF persistence [4]: markedly increased IRIF persistence

oxalate [PKi]
IRIF persistence [3]: markedly increased IRIF persistence | IRIF persistence [4]: markedly increased IRIF persistence

From US20150024008A1, “Methods and Compositions Involving Induced Senescent Cells for Cancer Treatment” (THE UNIVERSITY OF CHICAGO, priority 2011, published 2015)
